Measured values taken from paper PMC8080530, “Glucocorticoid receptor Thr524 phosphorylation by MINK1 induces interactions with 14-3-3 protein regulators” (The Journal of Biological Chemistry, 2021).
Read-outs that look alike come from different tables or passages of the source. Non-standard residues stand in square brackets, D forms with d. Residues, ends and D or L forms follow the SMILES beside them. *: point of attachment. 6FAM = O=C1OC2(c3ccc(O)cc3Oc3cc(O)ccc32)c2cc(C(=O)*)ccc21; pT = C[C@@H](OP(=O)(O)O)[C@H](N)C(=O)O; pS = N[C@@H](COP(=O)(O)O)C(=O)O

Molecular target: T1, 14-3-3ζ (Homo sapiens, UniProt P63104)
T1 construct: Full-length expression and purification of 14-3-3; made in house; host or cells: E. coli BL21 (DE3)STAR
T1 sequence (P63104 1-245): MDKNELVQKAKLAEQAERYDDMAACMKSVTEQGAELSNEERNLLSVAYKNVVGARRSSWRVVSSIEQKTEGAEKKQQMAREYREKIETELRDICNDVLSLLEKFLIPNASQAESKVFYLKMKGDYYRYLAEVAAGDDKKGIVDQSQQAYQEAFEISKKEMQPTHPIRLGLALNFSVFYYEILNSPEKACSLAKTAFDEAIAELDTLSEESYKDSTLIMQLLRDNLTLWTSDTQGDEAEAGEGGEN
Test: FP assay with GR phosphorylated peptides and 14-3-3ζ
Type: binding
Description: After 30-min incubation at RT, the plates were read on a plate reader PHERAstar (BMG LABTECH GmbH) for FP signal using […] and standard excitation (485 nm) and emission (520 nm). Measurements were performed as triplicates. Binding data were fit to a standard Hill equation using the software Genedata Screener. The figures were made using the software GraphPad Prism 8. FP data were expressed as millipolarization (mP) units, and the dynamic range (ΔmP) was the difference of the signals from the bound peptide and free peptide. Errors are the standard error of the fit.

[1] = FP, doubly phosphorylated 31-mer peptides, triplicates, read-out: Kd with 14-3-3ζ (values in nM)
[2] = read-out: PKd with 14-3-3ζ (converted)
[3] = FITC-labeled peptide 60 nM (monophosphorylated) or 10 nM (doubly phosphorylated) titrated with 14-3-3ζ, 30 min RT, Hill fit, triplicates, read-out: Kd with 14-3-3ζ by FP

Row | Structure (SMILES) | Kd [2] | Kd [3] | further results
1 | CC[C@H](C)[C@H](NC(=O)[C@@H](NC(=O)[C@H](C)N)[C@@H](C)O)C(=O)N[C@H](C(=O)N1CCC[C@H]1C(=O)N[C@@H](C)C(=O)N[C@H](C(=O)N[C@@H](CC(C)C)C(=O)N1CCC[C@H]1C(=O)N[C@@H](CCC(N)=O)C(=O)N[C@@H](CC(C)C)C(=O)N[C@H](C(=O)N1CCC[C@H]1C(=O)NCC(=O)NCC(=O)NCC(=O)NCC(=O)NCC(=O)N[C@@H](CCCNC(=N)N)C(=O)N[C@@H](CO)C(=O)N[C@@H](Cc1ccc(O)cc1)C(=O)N[C@@H](CCCNC(=N)N)C(=O)N[C@@H](CCC(N)=O)C(=O)N[C@@H](CO)C(=O)N[C@@H](COP(=O)(O)O)C(=O)N[C@@H](C)C(=O)N[C@@H](CC(N)=O)C(=O)N[C@@H](CC(C)C)C(=O)N[C@@H](CC(C)C)C(=O)N[C@@H](CS)C(=O)N[C@@H](Cc1ccccc1)C(=O)O)[C@@H](C)O)[C@@H](C)OP(=O)(O)O)C(C)C [GR_K518A] (H-ATIVPA[pT]LPQLTPGGGGGRSYRQS[pS]ANLLCF-OH) | – | – | Kd [1]: 110 nM
2 | CC[C@H](C)[C@H](NC(=O)[C@@H](NC(=O)[C@@H](N)CCCCN)[C@@H](C)O)C(=O)N[C@H](C(=O)N1CCC[C@H]1C(=O)N[C@@H](C)C(=O)N[C@H](C(=O)N[C@@H](CC(C)C)C(=O)N1CCC[C@H]1C(=O)N[C@@H](CCC(N)=O)C(=O)N[C@@H](CC(C)C)C(=O)N[C@H](C(=O)N1CCC[C@H]1C(=O)NCC(=O)NCC(=O)NCC(=O)NCC(=O)NCC(=O)N[C@@H](CCCNC(=N)N)C(=O)N[C@@H](CO)C(=O)N[C@@H](Cc1ccc(O)cc1)C(=O)N[C@@H](CCCNC(=N)N)C(=O)N[C@@H](CCC(N)=O)C(=O)N[C@@H](CO)C(=O)N[C@@H](COP(=O)(O)O)C(=O)N[C@@H](C)C(=O)N[C@@H](CC(N)=O)C(=O)N[C@@H](C)C(=O)N[C@@H](CC(C)C)C(=O)N[C@@H](CS)C(=O)N[C@@H](Cc1ccccc1)C(=O)O)[C@@H](C)O)[C@@H](C)OP(=O)(O)O)C(C)C [GR_L620A] (H-KTIVPA[pT]LPQLTPGGGGGRSYRQS[pS]ANALCF-OH) | 50.1 nM | – | –
3 | CC[C@H](C)[C@H](NC(=O)[C@@H](NC(=O)[C@H](CCCCN)NC(=O)CNC(=O)CNC(=O)CNC(=O)CNC(=O)CNC(=O)[C@H](CCCCN)NC(=O)[C@@H]1CCCN1C(=O)[C@H](CC(N)=O)NC(=O)[C@H](CCC(=O)O)NC(=O)[C@@H]1CCCN1C(=O)[C@@H](NC(=O)[C@H](COP(=O)(O)O)NC(=O)[C@@H](NC(=O)[C@H](CO)NC(=O)[C@H](CCCNC(=N)N)NC(=O)[C@H](CC(N)=O)NC(=O)[C@H](CC(C)C)NC(=O)[C@H](CC(N)=O)NC(=O)c1ccc2c(c1)C1(OC2=O)c2ccc(O)cc2Oc2cc(O)ccc21)[C@@H](C)O)C(C)C)[C@@H](C)O)C(=O)N[C@H](C(=O)N1CCC[C@H]1C(=O)N[C@@H](C)C(=O)N[C@H](C(=O)N[C@@H](CC(C)C)C(=O)N1CCC[C@H]1C(=O)N[C@@H](CCC(N)=O)C(=O)N[C@@H](CC(C)C)C(=O)N[C@H](C(=O)N1CCC[C@H]1C(=O)O)[C@@H](C)O)[C@@H](C)OP(=O)(O)O)C(C)C [GR_pS134-pT524] (6FAM-NLNRST[pS]VPENPKGGGGGKTIVPA[pT]LPQLTP-OH; C-terminus assumed) | – | 550 nM | –
4 | CC[C@H](C)[C@H](NC(=O)[C@@H](NC(=O)[C@@H](N)CCCCN)[C@@H](C)O)C(=O)N[C@H](C(=O)N1CCC[C@H]1C(=O)N[C@@H](C)C(=O)N[C@H](C(=O)N[C@@H](CC(C)C)C(=O)N1CCC[C@H]1C(=O)N[C@@H](CCC(N)=O)C(=O)N[C@@H](CC(C)C)C(=O)N[C@H](C(=O)N1CCC[C@H]1C(=O)NCC(=O)NCC(=O)NCC(=O)NCC(=O)NCC(=O)N[C@@H](CCCNC(=N)N)C(=O)N[C@@H](CO)C(=O)N[C@@H](Cc1ccc(O)cc1)C(=O)N[C@@H](C)C(=O)N[C@@H](CCC(N)=O)C(=O)N[C@@H](CO)C(=O)N[C@@H](COP(=O)(O)O)C(=O)N[C@@H](C)C(=O)N[C@@H](CC(N)=O)C(=O)N[C@@H](CC(C)C)C(=O)N[C@@H](CC(C)C)C(=O)N[C@@H](CS)C(=O)N[C@@H](Cc1ccccc1)C(=O)O)[C@@H](C)O)[C@@H](C)OP(=O)(O)O)C(C)C [GR_R614A] (H-KTIVPA[pT]LPQLTPGGGGGRSYAQS[pS]ANLLCF-OH) | – | – | Kd [1]: 220 nM
5 | CC[C@H](C)[C@H](NC(=O)[C@@H](NC(=O)[C@@H](N)CCCCN)[C@@H](C)O)C(=O)N[C@H](C(=O)N1CCC[C@H]1C(=O)N[C@@H](C)C(=O)N[C@H](C(=O)N[C@@H](CC(C)C)C(=O)N1CCC[C@H]1C(=O)N[C@@H](CCC(N)=O)C(=O)N[C@@H](CC(C)C)C(=O)N[C@@H](C)C(=O)N1CCC[C@H]1C(=O)NCC(=O)NCC(=O)NCC(=O)NCC(=O)NCC(=O)N[C@@H](CCCNC(=N)N)C(=O)N[C@@H](CO)C(=O)N[C@@H](Cc1ccc(O)cc1)C(=O)N[C@@H](CCCNC(=N)N)C(=O)N[C@@H](CCC(N)=O)C(=O)N[C@@H](CO)C(=O)N[C@@H](COP(=O)(O)O)C(=O)N[C@@H](C)C(=O)N[C@@H](CC(N)=O)C(=O)N[C@@H](CC(C)C)C(=O)N[C@@H](CC(C)C)C(=O)N[C@@H](CS)C(=O)N[C@@H](Cc1ccccc1)C(=O)O)[C@@H](C)OP(=O)(O)O)C(C)C [GR_T529A] (H-KTIVPA[pT]LPQLAPGGGGGRSYRQS[pS]ANLLCF-OH) | 50.1 nM | – | –
6 | CC(C)C[C@H](NC(=O)[C@H](CC(C)C)NC(=O)[C@H](Cc1ccccc1)NC(=O)[C@H](COP(=O)(O)O)NC(=O)[C@H](CC(=O)O)NC(=O)[C@H](CC(=O)O)NC(=O)[C@H](CCC(=O)O)NC(=O)CNC(=O)[C@H](C)NC(=O)[C@@H](N)CC(C)C)C(=O)N[C@@H](CCC(=O)O)C(=O)NCC(=O)N[C@@H](CC(N)=O)C(=O)O [GR_pS234] (H-LAGEDD[pS]FLLEGN-OH; N-terminus assumed) | – | > 150000 nM | –
7 | CC[C@H](C)[C@H](NC(=O)[C@@H](NC(=O)[C@@H](N)CCCCN)[C@@H](C)O)C(=O)N[C@H](C(=O)N1CCC[C@H]1C(=O)N[C@@H](C)C(=O)N[C@H](C(=O)N[C@@H](CC(C)C)C(=O)N1CCC[C@H]1C(=O)N[C@@H](CCC(N)=O)C(=O)N[C@@H](CC(C)C)C(=O)N[C@H](C(=O)N1CCC[C@H]1C(=O)NCC(=O)NCC(=O)NCC(=O)NCC(=O)NCC(=O)N[C@@H](CCCNC(=N)N)C(=O)N[C@@H](CO)C(=O)N[C@@H](Cc1ccc(O)cc1)C(=O)N[C@@H](CCCNC(=N)N)C(=O)N[C@@H](CCC(N)=O)C(=O)N[C@@H](CO)C(=O)N[C@@H](COP(=O)(O)O)C(=O)N[C@@H](C)C(=O)N[C@@H](C)C(=O)N[C@@H](CC(C)C)C(=O)N[C@@H](CC(C)C)C(=O)N[C@@H](CS)C(=O)N[C@@H](Cc1ccccc1)C(=O)O)[C@@H](C)O)[C@@H](C)OP(=O)(O)O)C(C)C [GR_N619A] (H-KTIVPA[pT]LPQLTPGGGGGRSYRQS[pS]AALLCF-OH) | 39.8 nM | – | –
8 | CC[C@H](C)[C@H](NC(=O)[C@H](CCC(N)=O)NC(=O)CNC(=O)[C@@H](N)CCC(N)=O)C(=O)N[C@@H](CO)C(=O)N[C@@H](CC(C)C)C(=O)N[C@@H](COP(=O)(O)O)C(=O)N[C@@H](CO)C(=O)NCC(=O)N[C@@H](CCC(=O)O)C(=O)N[C@H](C(=O)N[C@@H](CC(=O)O)C(=O)N[C@@H](CC(C)C)C(=O)O)[C@@H](C)O [GR_pS113] (H-QGQISL[pS]SGETDL-OH; N-terminus and C-terminus assumed) | – | > 150000 nM | –
